Columns and labels:
[1] = rat, in vivo, po
Method: In forming samples 12-15, the insulin-PEG (or insulin-PEG inclusion complex) and the fish oil were sonicated for 30 minutes. The DPC was then added to the sonicated mixture and the mixture was briefly swirled or vortexed to mix. The resulting mixtures were kept at room temperature for 1 hour. The samples were administered via an oral gavage to rats at 150 IU/kg (for 5 kDa PEG) and 75 IU/kg (for 2 kDa PEG). At specified intervals, blood was collected from the jugular vein and analyzed for glucose values.

blood glucose = test: Blood glucose in rats after oral gavage or subcutaneous dosing; format: in vivo; conditions: subcutaneous 0.3 IU/kg
Method: The peptide and oil for formulations 44-47 were sonicated until they appeared cloudy but homogenous. Then the remaining ingredients were added to each sample. The samples were sonicated again until they appeared cloudy but homogenous. The samples were stored overnight at room temperature. Normal SD Rats (5 rats/group) were fasted overnight before being dosed by oral gavage at insulin equivalent dosage of 75 IU/kg. For comparison, a fifth group (sample 48) was dosed with Humulin R (recombinant human insulin) subcutaneously at 0.3 IU/kg. Blood was collected at predose (−30 min) and post dose (10 min, 30 min, 1 h, 1.5 h, 2 h, 3 h, 4 h, 6 h, 8 h) for glucose measurements by a glucometer. […]

[2] = cited from earlier work

Method for Caco-2 monolayer: In order to estimate the membrane permeability of various formulations, a Caco-2 permeability study was performed. The compounds tested were insulin-PEG (5 kDa), insulin-PEG (5 kDa) inclusion complex, insulin-PEG (5 kDa) inclusion complex and DPC, insulin-PEG (2 kDa), and the insulin-PEG (2 kDa) inclusion complex. All compounds were dissolved in media at a concentration of 1 mg insulin/mL media and added to a Caco-2 monolayer.

Substance: insulin-PEG (2 kDa): human insulin conjugated with a 2 kDa PEG
- % of the insulin-PEG permeating through the cell layer after 3 hours (Caco-2 monolayer): 1%
- serum insulin-PEG / absorption [1]: better absorbed than 5 kDa PEG

Substance: Sample 18: 0.011 mg/kg insulin, administered subcutaneously
- time glucose back to baseline (~60 mg/dL) (blood glucose; Example 10): about 3 hours

Substance: Sample 19: 0.011 mg/kg insulin, administered subcutaneously
- time glucose back to baseline (~60 mg/dL) (blood glucose; Example 11): about 3 hours
- reduction in blood glucose to, within 30 minutes (blood glucose; Example 11, all rats): 20 mg/dL

Substance: GLP-1: a 31 amino acid peptide, an incretin, a hormone that can decrease blood glucose levels
- in vivo half-life [2]: less than two

Substance: 48: Humulin R (recombinant human insulin) dosed subcutaneously at 0.3 IU/kg [Sample 48]
- time glucose back at baseline (blood glucose; Example 14): 3 h

Substance: Sample 17: 0.015 mg/kg insulin-PEG (2 kDa), administered subcutaneously
- time glucose back to baseline (~60 mg/dL) (blood glucose; Example 10): about 4 hours
